Here are results for nine compounds from PMC11172460 (International Journal of Molecular Sciences, 2024).

Structures are written as SMILES. Read-outs that look alike come from different tables or passages of the source.

The term Log P denotes a log measure of how a compound divides between an organic and an aqueous phase.

For data set [1] the following is noted: rodents and humans, ranging from a few minutes to 30 min; cited from earlier work.
For data set [2] the following is noted: same tristearin carriers; cited from earlier work.
The conditions of data set [3]: rat brain homogenates, cited from earlier work; for amount hydrolyzed: within 6 h.
For data set [4] the following is noted: rat liver homogenates, cited from earlier work.
Details of data set [5]: method as in PMID 10669289. The settings on record: 1-octanol/water; cited from earlier work.
The test system of data set [6] is differentiated N2a cells. The data set is described as follows: DCFH-DA assay of intracellular ROS production. The data set is classed as cell-based, mouse. As to the method: (§1) N2a cells were seeded on T75 flasks and grown in Dulbecco’s Modified Eagle Medium (DMEM) containing Glutamax, supplemented with 100 μg/mL streptomycin, 100 IU/mL penicillin, and 10% fetal bovine serum (FBS) in a humidified 5% CO2 atmosphere at 37 °C. After two passages by trypsinization, cells were seeded at a density of 5 × 10^3 cells/well in 12-well plates with 2 mL of DMEM or at a density of 5 × 10^2 cells/well in 96-well plates with 0.2 mL of DMEM, depending on the study (see below). For neural differentiation, N2a cells were allowed to adhere and proliferate in wells for 4 days; then, after washing once with serum-free DMEM, differentiating medium composed of DMEM containing 1% HS and 20 μM all-trans-retinoic acid (atRA) was added in both the seeding conditions, up to 6 days of differentiation, after which the cells were used for the experiments.
The potential antioxidant effect of Fer-Ger was evaluated according to the original method of Wang and Joseph. In this method, the nonpolar 2′,7′-dichlorofluorescin diacetate (DCFH-DA) enters the intact cells and is hydrolyzed by intracellular esterases to nonfluorescent DCFH carboxylate anion, which remains entrapped and becomes the high fluorescent dichlorofluorescin (DCF) after oxidation by free radicals generated by a stressor, such as H2O2. Therefore, H2O2-induced intracellular ROS production was measured in N2a cells by a florescence intensity assay following exposure to the oxidation-sensitive dye DCFH-DA. N2a cells were seeded at a density of 1 × 10^4 cells/well in a black-coated and clear bottom 96-well plate and neuron-differentiated as reported above. After 6 days, differentiating medium in N2a cells was replaced with pre-warmed phenol-red-free and serum-free DMEM containing 10 µM DCFH-DA and incubated for 30 min in the dark in a humidified 5% CO2 atmosphere at 37 °C. The 10 µM DCFH-DA loading solution was then removed, and the cells were washed twice with fresh phenol-red-free and serum-free DMEM to remove the redundant extracellular DCFH-DA probe. Subsequently, N2a cells were incubated with pre-warmed phenol-red free DMEM containing 1% FBS as an untreated control and with solutions dissolved in phenol-red free DMEM containing 1% FBS of Fer-Ger (1, 5, or 10 µM) or 100 µM ascorbic acid (AA, as an established antioxidant positive control) and incubated for 1 h in a humidified 5% CO2 atmosphere at 37 °C. After this time, 100 µM H2O2 was added in the absence or presence of 1, 5 or 10 µM Fer-Ger or 100 µM AA, and the fluorescence intensity was measured at an excitation wavelength of 485 nm and at an emission wavelength of 530 nm, monitoring the oxidation of DCFH to DCF by the intracellular ROS by running the kinetic over 75 min in a fluorescence microplate reader (VICTOR^3TM 1420 Multilabel counter, PerkinElmer, Milan, Italy). Results were represented as a percentage of intracellular ROS production (100% of control) resulting from the mean values ± SEM of sextuplicate wells over time.

Data set [7] relates to differentiated N2a cells. The data set is described as follows: MTT assay of H2O2-altered viability (neuroprotection). Format: cell-based, mouse. The settings on record: 100 µM H2O2 for 24 h. As to the method:
as §1
The MTT assay was also carried out to determine the neuroprotective effect of Fer-Ger on H2O2-induced cell oxidative stress in N2a neuronal cells. Briefly, N2a cells (5 × 10^2) were seeded and differentiated into 96-well plates, as reported above. Then, cells were incubated with 1 µM and 5 µM Fer-Ger dissolved in DMEM containing 0.5% HS for 1 h in a humidified 5% CO2 atmosphere at 37 °C. The experimental design therefore included cells incubated with only culture medium as a control and cells incubated for 24 h with 100 µM H2O2 as a damage-inducing agent after 1 h of preincubation in the absence or presence of 1 µM or 5 µM Fer-Ger. Then, 20 μL of MTT (5 mg/mL) was added into the 200 µL of the incubation medium. Four hours later, the medium containing MTT was aspirated and replaced by 100 µL of dimethyl sulfoxide (DMSO) solubilization agent for 1 h at 37 °C in an orbital shaker incubator. Finally, the absorbance of each well was measured at 570 nm using a microtiter plate reader (Sunrise® Microplate Reader, Tecan Trading AG, Männedorf, Switzerland).

As to `COc1cc(/C=C/C(=O)O)ccc1O` [Fer, ferulic acid], the in vivo half-lives in data set [1] is reported as no more than 30 min. In addition, in data set [2], the drug loading is on record as 0.38 % w/w and the “encapsulation efficiency (EE)” value was “about 14%”.
On to `COC(=O)/C=C/c1ccc(OC(=O)/C=C/c2ccc(O)c(OC)c2)c(OC)c1` [Fer-Fer-Me], for which, in data set [2], the drug loading is 0.49 % w/w and the “encapsulation efficiency (EE)” value is recorded as “about 19%”. The half-life of hydrolysis result in data set [3] is on record as “about 14 min”.
Take `COc1cc(C=CC(=O)Oc2ccc(C=CC(=O)O)cc2OC)ccc1O` [Fer-Fer]: in data set [3], the amount hydrolyzed entry is recorded as “about 50%”.
For `COC(=O)/C=C/c1ccc(O)c(OC)c1` [Fer-Me], in data set [2], the drug loading is listed as 0.72 % w/w and the “encapsulation efficiency (EE)” value is listed as “about 28%”. In addition, in data set [3], the hydrolysis result is recorded as “total absence of hydrolysis processes”.
On to `CC(C)=CCCC(C)=CCOC(=O)CCC(C)C1CCC2C3C(O)CC4CC(O)CCC4(C)C3CCC12C` (stereo not shown) [GER-UDCA], for which, in data set [3], the amount hydrolyzed result is reported as “about 30%”. The half-life of hydrolysis result in data set [4] is given as “higher than 30 min”.
`CC(C)=CCC/C(C)=C/CO` [Ger, geraniol]: in data set [5], the “Log P” value was 3.56. The in vivo half-lives in data set [1] is listed as no more than 30 min.
Regarding `OO` [H2O2, hydrogen peroxide, reference compound], the “effect on DCF fluorescence (ROS production)” value in the data set on differentiated N2a cells [6] (100 µM H2O2, 75 min observation) was “significantly and time-dependently increased DCF fluorescence”. The “reduction of cell viability compared to untreated cells” value with differentiated N2a cells [7] is recorded as 74%.
As for `Cc1cn([C@H]2C[C@H](N=[N+]=[N-])[C@@H](COC(=O)CC[C@@H](C)[C@H]3CC[C@H]4[C@@H]5[C@@H](O)C[C@@H]6C[C@H](O)CC[C@]6(C)[C@H]5CC[C@]34C)O2)c(=O)[nH]c1=O` [UDCA-AZT], in data set [2], the drug loading is given as 0.57 % w/w and the “encapsulation efficiency (EE)” value is recorded as “about 26%”. For the same compound, in data set [3], the half-life of hydrolysis entry is given as “about 7 min”. In data set [4] (ref our previous results), the hydrolysis rate entry is recorded as “the same hydrolysis rate as Fer-Ger”.
With `O=C1O[C@H]([C@@H](O)CO)C(O)=C1O` [ascorbic acid], the “effect on basal ROS production” value in the data set with differentiated N2a cells [6] (100 µM ascorbic acid alone) is listed as “without by itself modifying basal ROS production”. The “effect on H2O2-induced ROS production” value with differentiated N2a cells [6] (100 µM ascorbic acid with 100 µM H2O2) is on record as “completely prevented the H2O2-induced ROS production”.
